From patent publication US20210238124A1, “ACETYLATED PRODRUGS FOR DELIVERY ACROSS THE BLOOD-BRAIN BARRIER” (THE GENERAL HOSPITAL CORPORATION, priority 2018, published 2021)

Columns and labels:
[1] = Biodistribution of 4-[^18F]-fluoroinositol in normal rats; format: in vivo; settings: FIG. 1
[2] = Biodistribution / brain uptake of ^18F-scyllo-inositols 1 and 2; format: in vivo, rats
Description: Brain uptake (% DPG) at 5, 30, and 60 min for the acetylated derivative 1 was 0.8%, 0.9%, and 0.26% (See FIG. 4).
Inositol is transported across the blood-brain barrier by a low capacity, saturable system.

Aβ42 fibers = Aβ42 fibers (Homo sapiens, UniProt P05067); settings: cited from earlier work
Aβ42 fibers, sequence (P05067 672-713 limits assumed): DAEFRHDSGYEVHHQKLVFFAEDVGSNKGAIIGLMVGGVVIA

[3] = rat, in vivo
Description: Here, imaging is performed in normal rats and rats pretreated with mannitol.
PET imaging was performed in a rats using a Siemens Focus 220 scanner with Neurological CT scanner. [^18F]-fluoromannitol (1.2 mCi) was injected via tail-vein and imaged in list mode for one hour.
In a separate experiment, a 25% solution of D-mannitol was i.v. injected 30 min prior to tracer injection.

large intestinal cancer = settings: rats fed prior to carcinogen treatment; cited from earlier work

## OC1C(O)C(O)C(F)C(O)C1O (centres unmarked) [4-[^18F]-fluoroinositol, 4-deoxy-4-fluoro-myo-inositol]
[1]
  defluorination: minimal
  tissue accumulation (biodistribution): high and fast accumulation in kidney and bladder without any other specific tissue accumulation

## CC(=O)OC1C([18F])C(OC(C)=O)C(OC(C)=O)C(OC(C)=O)C1OC(C)=O (centres unmarked) [Compound 1, 1-deoxy-1-[^18F]-fluoro-2,3,4,5,6-penta-O-acetyl-scyllo-inositol]
[2]; rat, in vivo
  brain clearance: significant brain clearance

## O[C@H]1[C@H](O)[C@@H](O)[C@H](O)[C@@H](O)[C@@H]1O [scyllo-inositol]
Aβ42 fibers
  formation of Aβ42 fibers: inhibiting Aβ42 fiber formation

## OC[C@@H](O)[C@@H](O)[C@H](O)[C@H](O)C[18F] [[^18F]-Fluoromannitol, 1-deoxy-1-[^18F]-fluoro-D-mannitol]
[3]
  Brain accumulation (% injected dose): 0.1 % ID
  Brain activity (% injected dose): 0.08 % ID
  brain uptake in the images: high brain uptake
  early brain kinetics: very fast flow related brain accumulation and washout

## OC1C(O)C(O)C(F)C(O)C1O (centres unmarked) [1-deoxy-1-fluoro-scyllo-inositol]
Aβ42 fibers
  formation of Aβ42 fibers: significantly inhibit

## O=P([O-])(O)OC1C(OP(=O)(O)O)C(OP(=O)(O)O)C(OP(=O)(O)O)C(OP(=O)(O)O)C1OP(=O)(O)O.[Na+] (centres unmarked) [sodium inositol hexaphosphate]
Large intestinal cancer
  decrease in large intestinal cancer compared to the control carcinogen group: 35%

## OC1C(O)C(O)C([18F])C(O)C1O (centres unmarked) [Compound 2, 1-deoxy-1-[^18F]-fluoro-scyllo-inositol]
[2]; 5 min
  Brain uptake (% DPG): 0.18 % DPG
[2]; 30 min
  Brain uptake (% DPG): 0.30 % DPG
[2]; 60 min
  Brain uptake (% DPG): 0.36 % DPG
[2]; FIG. 5
  site of majority of the activity: majority of the activity accumulating in kidneys
